Data set [1] concerns RSV A2 (PRNT1). The data set is described as follows: RSV plaque reduction assay, A2 (PRNT1), Vero cells. It is filed as cell-based, respiratory syncytial virus. The conditions noted are these: n = 4. The procedure: Plaque Reduction Assay: […] After an overnight incubation at 37° C. in a humidified 5% CO2 atmosphere, the monolayer of cells should be approximately 90% confluent. Antiviral compounds were titrated in pre-warmed Serum Free (SF) Optimem in a U-bottom 96 well plate. […] Media was then removed from cells and replaced with PBS (100 μl/well). RSV stock was thawed and diluted in SF Optimem media to 4000 PFU/mLl. An equal volume of virus was added to compounds on the titration plate. PBS was removed from cells which were then inoculated with the virus/compound solution (50 μL/well). Cells were incubated for 2 h in a 37° C.+5% CO2 humidified incubator to allow infection. […] Immunostaining Procedure: Media was removed from cells and the monolayer washed with PBS. Cells were fixed with ice cold 80% Acetone in PBS (100 μl/well) for 20 mins at −20° C. […] Blocking solution was removed and plates washed once with PBS-T. Primary antibody in blocking solution was added to plates (50 μl/well) and incubated for 1 h at 37° C. Plates were then washed 3 times with PBS-T. Secondary antibody in blocking solution was added to plates (50 μL/well) and incubated for 1 h at 37° C. in the dark. […] Plates were scanned on the Odyssey Imager (Li-Cor Biosciences) at a resolution of […], medium quality and level 5 intensity in the […]. Data Analysis: Images obtained were saved and plaque numbers counted with the aid of computer imaging software. EC50 values for compounds were derived from dose response curves [three variable log (inhibitor) vs response] obtained using Graphpad Prism software.

The nature of data set [2]: Liver microsomal stability, human. The class given is in vitro ADME. The note with it: both sexes, pooled liver microsomes, pH 7.4, 3 μM compound, read-out: Liver Microsomal Stability T1/2, human. The procedure:
(§1) Microsomal Incubation: Experimental Procedure
(§2) Pooled human liver microsomes (pooled male and female), pooled rat liver microsomes (male Sprague Dawley rats) and pooled dog liver microsomes (male Beagle dog) are purchased from a reputable commercial supplier and stored at −80° C. prior to use.
(§3) Microsomes (final protein concentration 0.5 mg/mL), 0.1 M phosphate buffer pH 7.4 and test compound (final substrate concentration 3 μM; final DMSO concentration 0.25%) are pre-incubated at 37° C. prior to the addition of NADPH (final concentration 1 mM) to initiate the reaction. The final incubation volume is 50 μL. A control incubation is included for each compound tested where 0.1 M phosphate buffer pH 7.4 is added instead of NADPH (minus NADPH). Two control compounds are included with each species. All incubations are performed singularly for each test compound.
(§4) Compounds are incubated for 0, 5, 15, 30 and 45 min. The control (minus NADPH) is incubated for 45 min only. The reactions are stopped by transferring 25 μL of incubate to 50 μL methanol at the appropriate time points. The termination plates are centrifuged at 2,500 rpm for 20 min at 4° C. to precipitate the protein. Following protein precipitation, the sample supernatants are combined in cassettes of up to 4 compounds, internal standard is added and samples analysed by LC-MS/MS. From a plot of ln peak area ratio (compound peak area/internal standard peak area) against time, the gradient of the line is determined. Subsequently, half-life and intrinsic clearance are calculated

A short description of data set [3]: Liver microsomal stability, rat. The note with it: male, Sprague Dawley, read-out: Liver Microsomal Stability T1/2, rat. The class given is in vitro ADME. The procedure:
as §1, §2
The final incubation volume is 50 μL. A control incubation is included for each compound tested where 0.1 M phosphate buffer pH 7.4 is added instead of NADPH (minus NADPH). Two control compounds are included with each species. All incubations are performed singularly for each test compound.
The reactions are stopped by transferring 25 μL of incubate to 50 μL methanol at the appropriate time points. The termination plates are centrifuged at 2,500 rpm for 20 min at 4° C. to precipitate the protein. Following protein precipitation, the sample supernatants are combined in cassettes of up to 4 compounds, internal standard is added and samples analysed by LC-MS/MS. From a plot of ln peak area ratio (compound peak area/internal standard peak area) against time, the gradient of the line is determined. Subsequently, half-life and intrinsic clearance are calculated
For orientation: Liver microsomes are vesicles of endoplasmic reticulum, rich in cytochrome P450 enzymes.

Data set [4] can be described thus: Liver microsomal stability, dog. The class given is in vitro ADME. The note with it: male, Beagle, pooled liver microsomes, pH 7.4, 3 μM compound, read-out: Liver Microsomal Stability T1/2, dog. The procedure: as §1, §2, §3, §4
Data set [5] is described as follows: In vivo pharmacokinetics in rats (IV and PO). Details: species or system male Sprague Dawley rats. The note with it: male Sprague Dawley rats, 1 mg/kg (IV). The protocol:
The pharmacokinetics of compounds were studied in vivo in male Sprague Dawley rats at doses of 1 mg/kg (IV) and 10 mg/kg (PO).
Sprague Dawley rats were treated with experimental compounds via intravenous and oral administration. Three animals for each route of administration were used with serial blood sampling at ten time points post dosing of compound.
Animals were weighed and used if between 200-250 g. Serial blood samples were collected at 0.02, 0.08, 0.25, 0.50, 1, 2, 4, 6, 8 and 24 hours post dosing. […] Blood samples were delivered into an anticoagulant (sodium heparin) and centrifuged at 4° C. Plasma samples were subsequently stored frozen at less than −20° C. prior to analysis.
Following protein precipitation with acetonitrile, samples were analysed with tandem liquid chromatography/mass spectrometry using electrospray ionisation. A full matrix curve with internal standards was employed and PK parameters were calculated.
In a similar manner, oral administration was performed by gavage at doses of 5 or 10 mg/kg at a concentration of 5 mg/ml in 1% Methyl cellulose (Sigma M7140), 0.1% Tween 80 in water. Serial samples were taken as described above.
RV039 was administered at doses of 1 mg/kg (IV) and 5 mg/kg (PO).

[6] abbreviates: human respiratory syncytial virus, Vero.

Usually IC50 stands for the midpoint of a concentration-inhibition curve. Lower therefore signals inhibition by little substance. For the compound `NCc1ccc2c(c1)nc(CN1C(=O)C3(CC3)c3ccc(F)cc31)n2C1CCOCC1` [Example 7, 1′-((5-(aminomethyl)-1-(tetrahydro-2H-pyran-4-yl)-1H-benzo[d]imidazol-2-yl)methyl)-6′-fluorospiro[cyclopropane-1,3′-indolin]-2′-one], the IC50 in data set [1] (setting [6]) came out at 1.6 nM. For the same compound, the half-life at 3 μM in data set [2] worked out at 0.557 h; in data set [3] (pH 7.4, rat liver microsomes, 3 μM compound), 4.1 h; in data set [4] it was 55.8 h.

`NCc1ccc2c(c1)nc(CN1C(=O)C3(CC3)c3ccc(F)cc31)n2C1CCC(O)CC1` [Example 8, 1′-((5-(Aminomethyl)-1-((1R,4R)-4-hydroxycyclohexyl)-1H-benzo[d]imidazol-2-yl)methyl)-6′-fluorospiro[cyclopropane-1,3′-indolin]-2′-one] displayed an IC50 in data set [1] of 4.8 nM.

With `CC(C)CCn1c(CN2C(=O)C3(CC3)c3ccncc32)nc2cc(CN)ccc21` [Example 6, 1′-((5-(aminomethyl)-1-isopentyl-1H-benzo[d]imidazol-2-yl)methyl)spiro[cyclopropane-1,3′-pyrrolo[2,3-c]pyridin]-2′(1′H)-one], the midpoint of inhibition in data set [1] (setting [6]), the IC50, lay at 2.3 nM. Also, the half-life at 3 μM in data set [2] turned out to be 3.82 h; in data set [3] (pooled liver microsomes, pH 7.4, 3 μM compound), 2.08 h; in data set [4] it was 18.3 h.

For `CC(C)CCn1c(CN2C(=O)C3(CC3)c3cccnc32)nc2cc(CN)ccc21` [Example 5, 1′-((5-(aminomethyl)-1-isopentyl-1H-benzo[d]imidazol-2-yl)methyl)[spirocyclopropane-1,3′-pyrrolo[2,3-b]pyridin]-2′(1′H)-one], in data set [1], it took 5.3 nM to reach half-maximal inhibition (IC50). Also, in data set [5], the Volume of distribution result was “Example 5: 8.2 L/kg”.

The values above are taken from patent US10106539B2, “Spiro-indolines for the treatment and prophylaxis of respiratory syncytial virus infection (RSV)” (REVIRAL LIMITED, priority 2014, dated 2018).
